Series [1] deals with T1, Aldo-keto reductase family 1 member C3 (Homo sapiens, UniProt P42330).
T1 sequence (P42330 whole entry): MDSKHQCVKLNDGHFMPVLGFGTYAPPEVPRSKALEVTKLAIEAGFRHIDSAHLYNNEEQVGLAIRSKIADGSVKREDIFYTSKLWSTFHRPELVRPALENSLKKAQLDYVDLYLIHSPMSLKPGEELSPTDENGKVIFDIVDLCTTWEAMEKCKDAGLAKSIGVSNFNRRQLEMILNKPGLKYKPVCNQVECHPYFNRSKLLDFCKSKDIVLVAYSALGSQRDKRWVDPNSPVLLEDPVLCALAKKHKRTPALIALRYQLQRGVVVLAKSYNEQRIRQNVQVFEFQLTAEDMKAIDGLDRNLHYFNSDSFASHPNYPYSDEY
Briefly: Drug metabolism in human recombinant […] HEK293 cells treated with 20 uM boceprevir assessed as 1 mM BNPP-mediated inhibition of AKR1C3-mediated metabolite formation after 120 mins in presence of NADPH by LC-MS/MS/FSA method. Further details: interact cpd dose 1 mM. The conditions noted are these: hek293, 2 h. In kind it is ADME, cell-based.

Series [2] in a line: Drug metabolism in human liver S9 fraction treated with 20 uM assessed as compound formation in presence of NADPH generating system by LC-MS/MS/FSA method. Type of series: ADME, subcellular.
Series [3] deals with Liver cytosol. Briefly: Drug metabolism in human liver cytosol at 20 uM assessed as (1R,2S,5S)-N-((2S,3R)-4-amino-1-cyclobutyl-3-hydroxy-4-oxobutan-2-yl)-3-((S)-2-(3-tert-butylureido)-3,3-dimethylbutanoyl)-6,6-dimethyl-3-azabicyclo[3.1.0]hexane-2-carboxamide formation at 20 uM after 60 mins in presence of AKR inhibitor ibuprofen by LC-MS/MS/FSA method. Type of series: ADME. The conditions noted are these: 1 h.

Series [4] relates to Liver cytosol. Briefly: Drug metabolism in human liver cytosol at 20 uM assessed as (1R,2S,5S)-N-((2S,3R)-4-amino-1-cyclobutyl-3-hydroxy-4-oxobutan-2-yl)-3-((S)-2-(3-tert-butylureido)-3,3-dimethylbutanoyl)-6,6-dimethyl-3-azabicyclo[3.1.0]hexane-2-carboxamide formation in presence of flufenamic acid by LC-MS/MS/FSA method. Type of series: ADME.
Series [5] in a line: Drug excretion in human feces. Type of series: ADME. More on the design: dosed compound name [14C]-SCH 534128.
Series [6] has as its system Liver cytosol. Briefly: Drug metabolism in human liver cytosol at 20 uM assessed as (1R,2S,5S)-N-((2S,3R)-4-amino-1-cyclobutyl-3-hydroxy-4-oxobutan-2-yl)-3-((S)-2-(3-tert-butylureido)-3,3-dimethylbutanoyl)-6,6-dimethyl-3-azabicyclo[3.1.0]hexane-2-carboxamide formation in presence of pargyline by LC-MS/MS/FSA method. In kind it is ADME.
Series [7] deals with Liver cytosol. Briefly: Drug metabolism in human liver cytosol at 20 uM assessed as (1R,2S,5S)-N-((2S,3R)-4-amino-1-cyclobutyl-3-hydroxy-4-oxobutan-2-yl)-3-((S)-2-(3-tert-butylureido)-3,3-dimethylbutanoyl)-6,6-dimethyl-3-azabicyclo[3.1.0]hexane-2-carboxamide formation at 20 uM after 60 mins in presence of co-incubation with ritonavir by LC-MS/MS/FSA method. Type of series: ADME. The conditions noted are these: 1 h.

A short description of series [8]: Drug excretion in human feces assessed as oxidative metabolites level. Type of series: ADME. More on the design: dosed compound name [14C]boceprevir.
Series [9] can be described thus: Drug metabolism in human liver S9 fraction at 20 uM assessed as (1R,2S,5S)-N-((2S,3R)-4-amino-1-cyclobutyl-3-hydroxy-4-oxobutan-2-yl)-3-((S)-2-(3-tert-butylureido)-3,3-dimethylbutanoyl)-6,6-dimethyl-3-azabicyclo[3.1.0]hexane-2-carboxamide formation in presence of phenolphthalein by LC-MS/MS/FSA method. Type of series: ADME, subcellular. The conditions noted are these: s9, 20 µM.

The nature of series [10]: Drug metabolism in human liver S9 fraction at 20 uM assessed as (1R,2S,5S)-N-((2S,3R)-4-amino-1-cyclobutyl-3-hydroxy-4-oxobutan-2-yl)-3-((S)-2-(3-tert-butylureido)-3,3-dimethylbutanoyl)-6,6-dimethyl-3-azabicyclo[3.1.0]hexane-2-carboxamide formation in presence of BNPP by LC-MS/MS/FSA method. Type of series: ADME, subcellular. To be noted: s9, 20 µM.
The target of series [11] is T2, Aldo-keto reductase family 1 member C4 (Homo sapiens, UniProt P17516).
T2 sequence (P17516 whole entry): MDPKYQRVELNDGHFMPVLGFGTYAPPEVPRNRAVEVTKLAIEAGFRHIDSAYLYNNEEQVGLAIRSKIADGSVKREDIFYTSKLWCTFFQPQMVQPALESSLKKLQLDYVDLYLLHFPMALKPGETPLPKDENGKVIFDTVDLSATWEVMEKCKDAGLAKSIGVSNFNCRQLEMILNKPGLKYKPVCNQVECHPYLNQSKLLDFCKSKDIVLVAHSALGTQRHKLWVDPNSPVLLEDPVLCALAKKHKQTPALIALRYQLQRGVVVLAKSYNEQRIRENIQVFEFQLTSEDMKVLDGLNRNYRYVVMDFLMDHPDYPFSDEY
Briefly: Activity of human recombinant AKR1C4 expressed in HEK293 cells assessed as (1R,2S,5S)-N-((2S,3R)-4-amino-1-cyclobutyl-3-hydroxy-4-oxobutan-2-yl)-3-((S)-2-(3-tert-butylureido)-3,3-dimethylbutanoyl)-6,6-dimethyl-3-azabicyclo[3.1.0]hexane-2-carboxamide formation per mg protein after 120 mins in presence of NADPH by LC-MS/MS/FSA method. Type of series: ADME, cell-based. The conditions noted are these: hek293, 2 h.

Series [12] deals with Liver cytosol. Briefly: Drug metabolism in human liver cytosol at 20 uM assessed as (1R,2S,5S)-N-((2S,3R)-4-amino-1-cyclobutyl-3-hydroxy-4-oxobutan-2-yl)-3-((S)-2-(3-tert-butylureido)-3,3-dimethylbutanoyl)-6,6-dimethyl-3-azabicyclo[3.1.0]hexane-2-carboxamide formation at 20 uM after 60 mins in presence of AKR inhibitor diflunisal by LC-MS/MS/FSA method. In kind it is ADME. To be noted: 1 h.

Series [13] has as its system Liver cytosol. Briefly: Drug metabolism in human liver cytosol assessed as (1R,2S,5S)-N-((2R,3R)-4-amino-1-cyclobutyl-3-hydroxy-4-oxobutan-2-yl)-3-((S)-2-(3-tert-butylureido)-3,3-dimethylbutanoyl)-6,6-dimethyl-3-azabicyclo[3.1.0]hexane-2-carboxamide formation per mg protein after 60 mins by LC-MS/MS/FSA method. Type of series: ADME, tissue-based. To be noted: 1 h.
The test system of series [14] is Liver cytosol. Briefly: Drug metabolism in human liver cytosol at 20 uM assessed as (1R,2S,5S)-N-((2R,3R)-4-amino-1-cyclobutyl-3-hydroxy-4-oxobutan-2-yl)-3-((S)-2-(3-tert-butylureido)-3,3-dimethylbutanoyl)-6,6-dimethyl-3-azabicyclo[3.1.0]hexane-2-carboxamide formation in presence of flufenamic acid by LC-MS/MS/FSA method. Type of series: ADME.
Series [15] concerns Liver cytosol. Briefly: Drug metabolism in human liver cytosol at 20 uM assessed as (1R,2S,5S)-N-((2R,3R)-4-amino-1-cyclobutyl-3-hydroxy-4-oxobutan-2-yl)-3-((S)-2-(3-tert-butylureido)-3,3-dimethylbutanoyl)-6,6-dimethyl-3-azabicyclo[3.1.0]hexane-2-carboxamide formation at 20 uM after 60 mins in presence of AKR inhibitor diazepam by LC-MS/MS/FSA method. In kind it is ADME. To be noted: 1 h.

Another series has as its system Liver microsome. Briefly: Drug metabolism in human liver microsomes treated with 5 uM [14C]boceprevir assessed as compound formation by LC-MS/FSA method relative to total [14C]boceprevir. Type of series: ADME. For orientation: Liver microsomes are a subcellular fraction often used to study metabolism.
The target in the next series is Cytochrome P450 3A5 (Homo sapiens, UniProt P20815). Briefly: Drug metabolism assessed as human CYP3A5-mediated compound formation from 5 uM [14C]boceprevir after 120 mins by LC-MS/FSA method relative to total [14C]boceprevir. In kind it is ADME. The conditions noted are these: recombinant enzyme, 2 h.
Cytochrome P450 3A5, sequence (P20815 whole entry): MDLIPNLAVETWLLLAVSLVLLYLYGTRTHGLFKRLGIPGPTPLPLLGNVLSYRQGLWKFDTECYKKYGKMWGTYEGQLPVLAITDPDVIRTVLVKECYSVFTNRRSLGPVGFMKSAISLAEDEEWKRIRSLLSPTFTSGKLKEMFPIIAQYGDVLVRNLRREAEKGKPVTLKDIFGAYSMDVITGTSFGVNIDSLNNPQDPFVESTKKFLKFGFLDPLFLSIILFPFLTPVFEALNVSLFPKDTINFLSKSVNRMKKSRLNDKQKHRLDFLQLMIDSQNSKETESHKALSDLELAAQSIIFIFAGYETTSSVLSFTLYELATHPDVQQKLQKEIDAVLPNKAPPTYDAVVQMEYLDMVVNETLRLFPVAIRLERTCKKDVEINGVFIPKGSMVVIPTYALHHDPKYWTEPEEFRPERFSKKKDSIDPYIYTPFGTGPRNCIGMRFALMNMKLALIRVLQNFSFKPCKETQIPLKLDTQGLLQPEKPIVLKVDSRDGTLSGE

For the molecule `CC(C)(C)NC(=O)N[C@H](C(=O)N1C[C@H]2[C@@H]([C@H]1C(=O)N[C@@H](CC1CCC1)[C@@H](O)C(N)=O)C2(C)C)C(C)(C)C`, the “inhibition (INH)” value in series [1] stood at 69%. Further, the Compound recovery in [2] was found to be 28%.

Regarding `CC(C)(C)NC(=O)N[C@H](C(=O)N1C[C@H]2[C@@H]([C@H]1C(=O)NC(CC1CCC1)C(=O)C(N)=O)C2(C)C)C(C)(C)C` (some centres not stated) [BOCEPREVIR], the Compound recovery result with Liver cytosol [3] is given as “metabolite_not_detected”; in the series on Liver cytosol [4] it was “metabolite_not_detected”; in the series with Liver cytosol [6], “metabolite_detected”; with Liver cytosol [7] it was “metabolite_detected”; in series [9], “metabolite_not_detected”; in [10], “metabolite_not_detected”. The Compound recovery result (in [11]; in the series with Liver cytosol [12]) was “metabolite_not_detected” each time. In addition, the results for the Radiolabel recovery result in [5] and in series [8] were “metabolite_not_detected” and 50%, respectively.

For the molecule `CC(C)(C)NC(=O)N[C@H](C(=O)N1C[C@H]2[C@@H]([C@H]1C(=O)N[C@H](CC1CCC1)C(=O)C(N)=O)C2(C)C)C(C)(C)C`, the Vmax with Liver cytosol [13] is 0.846 pmol/min. Moreover, the Compound recovery entry is given as “metabolite_not_detected” in the series on Liver cytosol [14], “metabolite_not_detected” in the series on Liver cytosol [15], 0.31% with Liver microsome and 2.19% on Cytochrome P450 3A5.

The term Vmax denotes the top rate of the reaction or transport when substrate is in excess.

For the origin of these results see ChEMBL document CHEMBL3526141, “Characterization of human liver enzymes involved in the biotransformation of boceprevir, a hepatitis C virus protease inhibitor” (Drug Metab Dispos, 2011).
